How the values were obtained:
Alternaria solani = test: In vivo fungicidal evaluation, Tomato Early Blight; conditions: 200 ppm, host plants sprayed, dried, then inoculated; also: ranges in brackets are in %
[1] = tested on: Erysiphe graminis f. sp. tritici; test: In vivo fungicidal evaluation, Wheat Powdery Mildew; conditions: 200 ppm, host plants sprayed, dried, then inoculated; also: ranges in brackets are in %
[2] = tested on: Heliothis virenscens, 3rd instar tobacco budworm; test: Insecticide evaluation, tobacco budworm cotton cotyledon dip; type: in vivo; conditions: 300 ppm, 3 days
Procedure: (§1) The following tests show the efficacy of the compounds as insecticides and acaricides. The evaluations are conducted with solutions of test compounds dissolved or dispersed in 50/50 acetone/water mixtures. The test compound is technical material dissolved or dispersed in said acetone/water mixtures in sufficient amounts to provide the concentrations set forth in Table I below. All concentrations reported herein are in terms of active ingredient. All tests are conducted in a laboratory maintained at about 27 °C. The rating system employed is as follows:
Cotton cotyledons are dipped in the test formulation and allowed to dry in a hood. When dry, each is cut into quarters and ten sections placed individually in 30 mL plastic medicine cups containing a 5 to 7 mm long piece of damp dental wick. One 3rd instar caterpillar is added to each cup and a cardboard lid placed on the cup. Treatments are maintained for 3 days before mortality counts and estimates of reduction in feeding damage are made.

Cercospora beticola = test: In vivo fungicidal evaluation, Sugar Beet Cercospora; conditions: 200 ppm, host plants sprayed, dried, then inoculated; also: ranges in brackets are in %
[3] = tested on: Diabrotica undecimpunctata howardi, 3rd instar southern corn rootworm; test: Insecticide evaluation, southern corn rootworm soil test; type: in vivo; set-up: key: 0 = no effect; 1 = 10-25% kill; 2 = 26-35% kill; 3 = 36-45% kill; 4 = 46-55% kill; 5 = 56-65% kill; 6 = 66-75% kill; 7 = 76-85% kill; 8 = 86-99% kill; 9 = 100% kill; - = No evaluation; conditions: 50 kg/ha (1.25 mg active ingredient per jar), 6 days
Procedure: as §1
One cc of fine talc is placed in a 30 mL wide-mouth screw-top glass jar. One mL of the appropriate acetone test solution is pipetted onto the talc so as to provide 1.25 mg of active ingredient per jar. The jars are set under a gentle air flow until the acetone is evaporated. The dried talc is loosened, 1 cc of millet seed is added to serve as food for the insects and 25 mL of moist soil is added to each jar. The jars are capped and the contents thoroughly mixed on a Vortex Mixer. Following this, ten 3rd instar rootworms are added to each jar and the jars are loosely capped to allow air exchange for the larvae. The treatments are held for 6 days before mortality counts are made. Missing larvae are presumed dead, since they decompose rapidly and can not be found. The concentration used in this test corresponds to approximately 50 kg/ha.

Plasmopara viticola = test: In vivo fungicidal evaluation, Grape Downy Mildew; conditions: 200 ppm, host plants sprayed, dried, then inoculated; also: ranges in brackets are in %
[4] = tested on: Tetranychus urticae (OP-resistant strain), 2-spotted spider mite; test: Acaricide evaluation, 2-spotted spider mite plant dip; type: in vivo; conditions: 300 ppm, 2 days, adult kill
Procedure: as §1
Sieva lima bean plants with primary leaves expaned to 7 to 8 cm are selected and cut back to one plant per pot. A small piece is cut from a leaf taken from the main colony and placed on each leaf of the test plants. This is done about 2 hours before treatment to allow the mites to move over to the test plant and to lay eggs. The size of the cut piece is varied to obtain about 100 mites per leaf. At the time of the treatment, the piece of leaf used to transfer the mites is removed and discarded. The mite-infested plants are dipped in the test formulation for 3 seconds with agitation and set in the hood to dry. Plants are kept for 2 days before estimates of adult kill are made.

Venturia inaequalis = test: In vivo fungicidal evaluation, Apple Scab; conditions: 200 ppm, host plants sprayed, dried, then inoculated; also: ranges in brackets are in %
Pyricularia oryzae = type: in vivo; conditions: 200 ppm, host plants sprayed, dried, then inoculated
Pythium ultimum (Pythul) = test: In vitro fungicidal evaluation, mycelial growth inhibition in nutrient broth; type: cell-based; conditions: 25 ppm, 3-4 days at 21°C, rated visually; also: ranges in brackets are in %
Procedure: (§2) Test compounds are dissolved or suspended in acetone and dispersed into cell well plates containing a suspension of ground fungal mycelia in a nutrient broth. Assay plates are incubated for 3-4 days at 21°C. Growth inhibition is measured visually and is rated using the following scale:
(§3) Untreated controls, solvent blanks and reference standards are included in each test.
(§4) Assay fungi include the plant pathogens, Pythium ultimum (Pythul); Rhizoctonia solani (Rhizso); Fusarium oxysporum f. sp. cucumerinum (Fusoxc); and Pseudocercosporella herpotrichoides (Psdche).
(§5) When more than one test is run, the data are averaged. The compouds evaluated are reported by compound number given in Example 5.

[5] = tested on: Pseudocercosporella herpotrichoides (Psdche); test: as above; type: cell-based; conditions: 25 ppm, 3-4 days at 21°C, rated visually; also: ranges in brackets are in %
Procedure: as §2, §3, §4, §5

[6] = tested on: Rhizoctonia solani (Rhizso); test: as above; type: cell-based; conditions: 25 ppm, 3-4 days at 21°C, rated visually; also: ranges in brackets are in %
Procedure: as §2, §3, §4, §5

[7] = tested on: Fusarium oxysporum f. sp. cucumerinum (Fusoxc); test: as above; type: cell-based; conditions: 25 ppm, 3-4 days at 21°C, rated visually; also: ranges in brackets are in %
Procedure: as §2, §3, §4, §5

Botrytis cinerea = test: In vivo fungicidal evaluation, Pepper Botrytis; conditions: 200 ppm, host plants sprayed, dried, then inoculated; also: ranges in brackets are in %
[8] = tested on: Puccinia recondita f. sp. tritici; test: In vivo fungicidal evaluation, Wheat Leaf Rust; conditions: 200 ppm, host plants sprayed, dried, then inoculated; also: ranges in brackets are in %
[9] = tested on: Spodoptera eridania 3rd instar larvae, southern army-worm; test: Insecticide evaluation, southern armyworm leaf dip; type: in vivo; conditions: 5 days
Procedure: as §1
A sieva lima bean leaf expanded to 7 to 8 cm in length is dipped in the test suspension with agitation for 3 seconds and placed in a hood to dry. The leaf is then placed in a 100x10 mm petri dish containing a damp filter paper on the bottom and 10 3rd instar caterpillars. The dish is maintained for 5 days before observations are made of mortality, reduced feeding or any interference with normal moulting.

## (4-Isopropylpyridinio)methyldiphenylboron [Compound 1]
Alternaria solani
  TEB (Tomato Early Blight) disease control rating: 7 (90 - 95)
[1]
  WPM (Wheat Powdery Mildew) disease control rating: 8 (96 - 99)
[2]
  Tobacco Budworm Larvae kill rating: 8 (8 = 86-99% kill)
Cercospora beticola
  SBC (Sugar Beet Cercospora) disease control rating: 0 (0)
[3]
  Southern Corn Rootworm kill rating: 0
Plasmopara viticola
  GDM (Grape Downy Mildew) disease control rating: 9 (100)
[4]
  OP. Res. Mites kill rating: 8 (8 = 86-99% kill)
Venturia inaequalis
  AS (Apple Scab) disease control rating: 9 (100)
Pyricularia oryzae
  RB (Rice Blast) disease control rating: 7 (90 - 95)
Pythium ultimum (Pythul)
  PHTHUL growth inhibition rating: 7 (90 - 99)
[5]
  PSDCHE growth inhibition rating: 9 (100)
[6]
  RHIZSO growth inhibition rating: 9 (100)
[7]
  FUSOXC growth inhibition rating: 9 (100)
Botrytis cinerea
  PB (Pepper Botrytis) disease control rating: 7 (90 - 95)
[8]
  WLR (Wheat Leaf Rust) disease control rating: 8 (96 - 99)
[9]; 300 ppm
  Southern Armyworm kill rating: 8 (8 = 86-99% kill)

## (Isoquinolinio)methyldiphenylboron [Compound 6]
Alternaria solani
  TEB (Tomato Early Blight) disease control rating: 0 (0)
[1]
  WPM (Wheat Powdery Mildew) disease control rating: 8 (96 - 99)
[2]
  Tobacco Budworm Larvae kill rating: 8 (8 = 86-99% kill)
Cercospora beticola
  SBC (Sugar Beet Cercospora) disease control rating: 0 (0)
[3]
  Southern Corn Rootworm kill rating: 9 (9 = 100% kill)
Plasmopara viticola
  GDM (Grape Downy Mildew) disease control rating: 9 (100)
[4]
  OP. Res. Mites kill rating: 8 (8 = 86-99% kill)
Venturia inaequalis
  AS (Apple Scab) disease control rating: 9 (100)
Pyricularia oryzae
  RB (Rice Blast) disease control rating: 6 (75 - 89)
Pythium ultimum (Pythul)
  PHTHUL growth inhibition rating: 9 (100)
[5]
  PSDCHE growth inhibition rating: 9 (100)
[6]
  RHIZSO growth inhibition rating: 7 (90 - 99)
[7]
  FUSOXC growth inhibition rating: 9 (100)
Botrytis cinerea
  PB (Pepper Botrytis) disease control rating: 0 (0)
[8]
  WLR (Wheat Leaf Rust) disease control rating: 9 (100)
[9]; 300 ppm
  Southern Armyworm kill rating: 9 (9 = 100% kill)

## Methyl(3-methylpyridinio)diphenylboron [Compound 2]
Alternaria solani
  TEB (Tomato Early Blight) disease control rating: 0 (0)
[1]
  WPM (Wheat Powdery Mildew) disease control rating: 8 (96 - 99)
Cercospora beticola
  SBC (Sugar Beet Cercospora) disease control rating: 0 (0)
[3]
  Southern Corn Rootworm kill rating: 9 (9 = 100% kill)
Plasmopara viticola
  GDM (Grape Downy Mildew) disease control rating: 9 (100)
[4]
  OP. Res. Mites kill rating: 9 (9 = 100% kill)
Venturia inaequalis
  AS (Apple Scab) disease control rating: 9 (100)
Pyricularia oryzae
  RB (Rice Blast) disease control rating: 7 (90 - 95)
Pythium ultimum (Pythul)
  PHTHUL growth inhibition rating: 9 (100)
[5]
  PSDCHE growth inhibition rating: 9 (100)
[6]
  RHIZSO growth inhibition rating: 9 (100)
[7]
  FUSOXC growth inhibition rating: 9 (100)
Botrytis cinerea
  PB (Pepper Botrytis) disease control rating: 0 (0)
[8]
  WLR (Wheat Leaf Rust) disease control rating: 8 (96 - 99)
[9]; 1000 ppm
  Southern Armyworm kill rating: 9 (9 = 100% kill)

From EP0624315B1, “Diaryl(pyridinio and isoquinolinio) boron fungicidal agents” (AMERICAN CYANAMID COMPANY, priority 1993, dated 1994)
